Results from US10688194B2, “Cell penetrating peptides for intracellular delivery of molecules” (AADIGEN, LLC, priority 2012, dated 2020).
Read-outs that look alike come from different tables or passages of the source. Ends that are not written are not given here.

Assays:
Peptide (C4 and C2) = test: Fluorescence titration, VEPEP-3/cargo binding: peptide
Protocol: (§1) Fluorescence experiments were performed on a PTI spectrofluorimeter at 25° C. in a NaCl 154 mM buffer. Intrinsic Trp-fluorescence of VEPEP-3 was excited at 290 nm and emission spectrum was recorded between 310 and 400 nm, with a spectral band-pass of 2 and 8 nm for excitation and emission, respectively. FITC-fluorescence of labelled-peptide was excited at 492 nm and emission recorded between 500 and 580 nm. For VEPEP-3/peptide interaction, 0.5 μM of FITC-labelled peptide was titrated by increasing concentrations of VEPEP-3. All measurements were corrected for the dilution and curve fitting were performed by using Grafit software (Erithacus).
(§2) VEPEP-3 peptide form stable complexes with peptides and proteins. The binding of cargos to VEPEP-3 was monitored by fluorescence spectroscopy using the […] intrinsic Trp groups of VEPEP-3 (3 to 5 Trp-residues) and extrinsic fluorescently labelled cargoes (using Cy3, Cy5 or FITC). Curve fitting reveal that VEPEP-3 strongly binds the different cargoes with dissociation constant in the nanomolar range (examples with VEPEP-3a, VEPEP-3C, and VEPEP-3g and three different cargoes are reported in FIGS. 1A-1C, all the data are reported in Table 1).

Cyclic peptide (PC4) = test: Fluorescence titration, VEPEP-3/cargo binding: cyclic peptide; settings: cargo: Cyclic peptide (PC4)
Protocol: as §1, §2

protein (GFP & Nanobody) = test: Fluorescence titration, VEPEP-3/cargo binding: protein; settings: cargo: protein (GFP & Nanobody)
Protocol: as §1, §2

[1] = Fluorescence titration, VEPEP-3/cargo binding: small hydrophobic molecule; settings: cargo: Doxorubicine; for Kd: read-out: Kd, SHM
Protocol: as §1
(§3) VEPEP-3 peptides also form stable particles with small aromatic molecules including Daunomycin, Paclitaxel, doxorubicin, porphyrin and charged molecules including nucleotide, nucleoside and peptide-analog of nucleic acids or fluorescent dyes (FIGS. 1A-1C). The dissociation constant for small hydrophobic molecule ranges between 0.05 to 2 μM, depending on the nature of the dyes and of the peptides.

PNA (15 mer-PNA) = test: Fluorescence titration, VEPEP-3/cargo binding: PNA; settings: cargo: 15 mer-PNA
Protocol: as §1, §3

HeLa and U2OS cells = test: Toxicity of VEPEP-3 particles, MTT assay and cyclophilin mRNA level; settings: complexed with short peptide and PNA at ratio 1/20
Protocol: Toxicity of VEPEP-3/peptide or VEPEP-3/protein complexes was investigated on Hela and HS-68 cell lines. 30,000 cells seeded in 24-well plated the day prior transfection, were incubated with increasing concentrations of peptide or protein complexed with VEPEP-3 at a 20/1 molar ratio ranging from 1 to 5 μM ([…]), for 30 min prior to addition of medium to reach a final 10% concentration of FCS. Cytotoxic response was measured 12 hr or 24 hr later by monitoring the housekeeping gene cyclophilin mRNA level (Quantigen, Panomic Inc.) and by colorimetric MTT assay (Sigma, Germany), respectively. For MTT assay, cell culture medium was removed and replaced with PBS containing 2.5 mg/ml of MTT for 4 hr. Results correspond to the average of 3 separate experiments.

MCF7 = test: Inhibition of cancer cell proliferation by delivered small molecule drugs; type: cell-based; settings: Homo sapiens
Protocol: (§4) Adherent HS68 fibroblasts, HeLa, PC3, MCF-7, SCK3-Her2, PBMC cell lines (from American Type Culture Collection (ATCC)) were cultured in Dulbecco's Modified Eagle's Medium supplemented with 2 mM glutamine, 1% antibiotics (streptomycin 10,000 μg/ml, penicillin, 10,000 IU/ml) and 10% (w/v) foetal calf serum (FCS), at 37° C. in a humidified atmosphere containing 5% CO2. […] 150,000 cells seeded in a 35 mm dish the day prior transfection, were grown to 60% confluence and overlaid with 200 μl of preformed complexes, incubated for 3-5 min, then 400 μl of DMEM were added. After 30 min. incubation at 37° C., 1 ml of fresh DMEM containing 16% foetal calf serum (FCS) was added in order to reach a final FCS concentration of 10%, without removing the overlay of VEPEP-3/peptide complexes. Cells were returned to the incubator for 24 hrs. […] Data reported are an average of 3 or 4 distinct experiments.

SKB3 = test: as above; type: cell-based
Protocol: as §4

HIV-1-LAI = type: cell-based; settings: for anti viral activity: scrambled peptides; for IC50: -LAI; for fold higher antiviral activity than AZT: associated to the carrier peptide VEPEP-3
Protocol: Adherent HS68 fibroblasts, HeLa, PC3, MCF-7, SCK3-Her2, PBMC cell lines (from American Type Culture Collection (ATCC)) were cultured in Dulbecco's Modified Eagle's Medium supplemented with 2 mM glutamine, 1% antibiotics (streptomycin 10,000 μg/ml, penicillin, 10,000 IU/ml) and 10% (w/v) foetal calf serum (FCS), at 37° C. in a humidified atmosphere containing 5% CO2. Stock solutions of VEPEP-3/peptide particles were prepared by complexing 1 μM peptide with VEPEP-3 peptides at a molar ratio of 1/20 for 30 min at 37° C. Lower concentrations of VEPEP-3-carrier/peptide (from 500 nM to […]) were obtained by serial dilution of the stock complexes in PBS, in order to preserve the same VEPEP-3-carrier/peptide ratio. 150,000 cells seeded in a 35 mm dish the day prior transfection, were grown to 60% confluence and overlaid with 200 μl of preformed complexes, incubated for 3-5 min, then 400 μl of DMEM were added. After 30 min. incubation at 37° C., 1 ml of fresh DMEM containing 16% foetal calf serum (FCS) was added in order to reach a final FCS concentration of 10%, without removing the overlay of VEPEP-3/peptide complexes. Cells were returned to the incubator for 24 hrs. For cdk4 and CDK2 derived peptides cell proliferation was monitored after 24 and 48 hrs. For peptide-targeting integrase, HIV proliferation was analyzed on activated PBMC cells after 3 and 5 days. Data reported are an average of 3 or 4 distinct experiments.
The anti-HIV activities of the peptides (PC4D, PC6D & PC4S) and VEPEP-3/peptides were assayed according to previously described method (Roisin et al, 2004). Phytohemagglutinin-P (PHA-P)-activated peripheral blood mononuclear cells (PBMC) treated by increasing concentrations of peptide (from 100 to 0.1 nM), one hour later, were infected with hundred 50% tissue culture infectious doses (TCID50) per 100,000 cells of the HIV-1-LAI or different resistant strains (Barre-Sinoussi et al, 1983). Viruses were amplified in vitro on PHA-P-activated PBMC. Viral stock was titrated using PHA-P-activated PBMC, and 50% TCID50 were calculated using Karber's formula (Karber 1931). Samples were maintained throughout the culture, and cell supernatants were collected at day 7 post-infection and stored at −20 C. Viral replication was measured by quantifying RT activity in cell culture supernatants. In parallel, cytotoxicity of the compounds was evaluated in uninfected PHA-P-activated PBMC by colorimetric 3-(4-5 dimethylthiazol-2-yl)2,5 diphenyl tetrazolium bromite (MTT) assay on day 7 (Mossmann 1983). Experiments were performed in triplicate and repeated with another blood donor. Data analyses were performed using SoftMax® Pro 4.6 microcomputer software: percent of inhibition of RT activity or of cell viability were plotted vs. concentration and fitted with quadratic curves; 50% effective doses (ED50) and cytotoxic doses (CD50) were calculated.

[2] = drug complexed with VEPEP-3a 1/20, read-out: VEPEP-3a 1/20 IC50
[3] = drug complexed with VEPEP-3g 1/20, read-out: VEPEP-3g 1/20 IC50
[4] = SKB3, drug complexed with VEPEP-3a 1/20, read-out: VEPEP-3a 1/20 IC50
[5] = SKB3, drug complexed with VEPEP-3g 1/20, read-out: VEPEP-3g 1/20 IC50
[6] = SKB3, free drug, read-out: Free drug IC50

Compound: X1KWWERWWREWPRKRK [VEPEP-3b]
- Binding, peptide (Peptide (C4 and C2)): yes
- Kd (Peptide (C4 and C2)): 10 to 20 nM
- Binding, Cyclic peptide (Cyclic peptide (PC4)): yes
- Binding, Protein (protein (GFP & Nanobody)): Yes
- Kd (protein (GFP & Nanobody)): 500 nM
- Binding, SHM [1]: Yes
- Kd [1]: 500 nM
- Binding, PNA (PNA (15 mer-PNA)): Yes
- Kd (PNA (15 mer-PNA)): 200 nM
- toxicity (HeLa and U2OS cells; levels up to 200 nM): No toxicity
- toxicity (HeLa and U2OS cells; maximum concentration of 1 μM): mild toxicity

Compound: COc1cccc2c1C(=O)c1c(O)c3c(c(O)c1C2=O)C[C@@](O)(C(=O)CO)C[C@@H]3O[C@H]1C[C@H](N)[C@H](O)[C@H](C)O1 [Doxo, doxorubicin]
- IC50 (MCF7; [2]): 200 nM
- IC50 (MCF7; drug complexed with VEPEP-3c 1/20, read-out: VEPEP-3c 1/20 IC50): 500 nM
- IC50 (MCF7; [3]): 200 nM
- IC50 (MCF7; free drug, read-out: Free drug IC50): 7000 nM
- IC50 (SKB3; [4]): 300 nM
- IC50 (SKB3; SKB3, drug complexed with VEPEP-3c 1/20, read-out: VEPEP-3c 1/20 IC50): 400 nM
- IC50 (SKB3; [5]): 200 nM
- IC50 (SKB3; [6]): 10000 nM
- fold more efficient when complexed with VEPEP-3 (SKB3; complexed versus free): 25 fold
- IC50 (SKB3; text of b118, cell line not stated, values match SKB3 line of Table 4, read-out: IC50, proliferation of cancer cells): 10000 nM

Compound: TWFTEWFT (HELM PEPTIDE1{[ac].T.W.F.T.E.W.F.T.[SCCN[*:1]]}$$$$V2.0; SMILES CC(=O)N[C@H](C(=O)N[C@@H](Cc1c[nH]c2ccccc12)C(=O)N[C@@H](Cc1ccccc1)C(=O)N[C@H](C(=O)N[C@@H](CCC(=O)O)C(=O)N[C@@H](Cc1c[nH]c2ccccc12)C(=O)N[C@@H](Cc1ccccc1)C(=O)N[C@H](C(=O)NCCS)[C@@H](C)O)[C@@H](C)O)[C@@H](C)O) [PC4S]
- anti viral activity (HIV-1-LAI): do not show any anti viral activity

Compound: X1LWWRRWWSRWWPRWRR [VEPEP-3f]
- Binding, peptide (Peptide (C4 and C2)): yes
- Kd (Peptide (C4 and C2)): 10 to 20 nM
- Binding, Cyclic peptide (Cyclic peptide (PC4)): yes
- Binding, Protein (protein (GFP & Nanobody)): Yes
- Kd (protein (GFP & Nanobody)): 20 to 100 nM
- Binding, SHM [1]: Yes
- Kd [1]: 20 nM
- Binding, PNA (PNA (15 mer-PNA)): Yes
- toxicity (HeLa and U2OS cells; levels up to 200 nM): No toxicity
- toxicity (HeLa and U2OS cells; maximum concentration of 1 μM): mild toxicity

Compound: X1RWWEKWWTRWPRKRK [VEPEP-3c]
- Binding, peptide (Peptide (C4 and C2)): yes
- Kd (Peptide (C4 and C2)): 10 to 20 nM
- Binding, Cyclic peptide (Cyclic peptide (PC4)): yes
- Binding, Protein (protein (GFP & Nanobody)): Yes
- Kd (protein (GFP & Nanobody)): 200 nM
- Binding, SHM [1]: Yes
- Kd [1]: 200 nM
- Binding, PNA (PNA (15 mer-PNA)): Yes
- Kd (PNA (15 mer-PNA)): 200 nM
- toxicity (HeLa and U2OS cells; levels up to 200 nM): No toxicity
- toxicity (HeLa and U2OS cells; maximum concentration of 1 μM): mild toxicity

Compound: CC(=O)O[C@H]1C(=O)[C@@]2(C)[C@H]([C@H](OC(=O)c3ccccc3)[C@]3(O)C[C@H](OC(=O)[C@H](O)[C@@H](NC(=O)c4ccccc4)c4ccccc4)C(C)=C1C3(C)C)[C@]1(OC(C)=O)CO[C@@H]1C[C@@H]2O [Taxol, taxol]
- IC50 (MCF7; [2]): 200 nM
- IC50 (MCF7; [3]): 700 nM
- IC50 (SKB3; [4]): 500 nM
- IC50 (SKB3; [5]): 800 nM
- IC50 (SKB3; [6]): 9000 nM

Compound: X1RWYEKWYTEFPRRRR [VEPEP-3d]
- Binding, peptide (Peptide (C4 and C2)): yes
- Kd (Peptide (C4 and C2)): 10 to 20 nM
- Binding, Cyclic peptide (Cyclic peptide (PC4)): yes
- Binding, Protein (protein (GFP & Nanobody)): Yes
- Kd (protein (GFP & Nanobody)): 100 nM
- Binding, SHM [1]: Yes
- Kd [1]: 100 nM
- Binding, PNA (PNA (15 mer-PNA)): Yes
- Kd (PNA (15 mer-PNA)): 100 nM
- toxicity (HeLa and U2OS cells; levels up to 200 nM): No toxicity
- toxicity (HeLa and U2OS cells; maximum concentration of 1 μM): mild toxicity

Compound: KWETWWET [PC6D, KWETWWET]
- IC50 (HIV-1-LAI): 0.09 ± 0.05 nM
- fold higher antiviral activity than AZT (HIV-1-LAI): 15 fold

Compound: KAETWAET (HELM PEPTIDE1{[ac].K.A.E.T.W.A.E.T.[SCCN[*:1]]}$$$$V2.0; SMILES CC(=O)N[C@@H](CCCCN)C(=O)N[C@@H](C)C(=O)N[C@@H](CCC(=O)O)C(=O)N[C@H](C(=O)N[C@@H](Cc1c[nH]c2ccccc12)C(=O)N[C@@H](C)C(=O)N[C@@H](CCC(=O)O)C(=O)N[C@H](C(=O)NCCS)[C@@H](C)O)[C@@H](C)O) [PC6S]
- anti viral activity (HIV-1-LAI): do not show any anti viral activity

Compound: RWTEWEWW [PC4D, RWTEWEWW]
- IC50 (HIV-1-LAI): 0.12 ± 0.05 nM
- fold higher antiviral activity than AZT (HIV-1-LAI): 15 fold

Compound: X1RWWRLWWRSWFRLWRR [VEPEP-3e]
- Binding, peptide (Peptide (C4 and C2)): yes
- Kd (Peptide (C4 and C2)): 10 to 20 nM
- Binding, Cyclic peptide (Cyclic peptide (PC4)): yes
- Binding, Protein (protein (GFP & Nanobody)): Yes
- Kd (protein (GFP & Nanobody)): 20 to 100 nM
- Binding, SHM [1]: Yes
- Kd [1]: 20 nM
- Binding, PNA (PNA (15 mer-PNA)): Yes
- toxicity (HeLa and U2OS cells; levels up to 200 nM): No toxicity
- toxicity (HeLa and U2OS cells; maximum concentration of 1 μM): mild toxicity

Compound: X1LWWSRWWRSWFRLWFR [VEPEP-3g]
- Binding, peptide (Peptide (C4 and C2)): yes
- Kd (Peptide (C4 and C2)): 10 to 20 nM
- Binding, Cyclic peptide (Cyclic peptide (PC4)): yes
- Binding, Protein (protein (GFP & Nanobody)): Yes
- Kd (protein (GFP & Nanobody)): 20 to 100 nM
- Binding, SHM [1]: Yes
- Kd [1]: 20 nM
- Binding, PNA (PNA (15 mer-PNA)): Yes
- toxicity (HeLa and U2OS cells; levels up to 200 nM): No toxicity
- toxicity (HeLa and U2OS cells; maximum concentration of 1 μM): mild toxicity
